These results are taken from patent US10195185B2, “3-(1H-imidazo[4,5-C]pyridin-2-yl)-1H-pyrazolo[4,3-B]pyridines and therapeutic uses thereof” (Samumed, LLC, priority 2015, dated 2019).

By EC50 is commonly meant the concentration that produces a half-maximal response. High values mean weaker potency, low ones greater potency. A word on the inhibition: it is the percentage by which the read-out fell short of the control.

Experiment [1] relates to IL-6 in human monocyte cell line (THP-1 cells). The experiment is described as follows: IL-6 inhibition in LPS-stimulated THP-1 cells (HTRF). It counts as cell-based. The note with it: IL-6 in LPS-stimulated THP-1 cells; for EC50: HTRF; for inhibition at 10 µM: read-out: percent inhibition in brackets beside EC50 >10 μM. In short, it runs like this:
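THP-1 cells, serum-reduced (1% FBS) for 24 h, were preincubated with compound (10-point 1:3 series from 10 μM, 0.1% DMSO) for 2 h, then stimulated with 500 ng/mL LPS for 22 h at 37° C. IL-6 was read by HTRF (665/620 nm ratio) and normalized to DMSO. EC50 from four-parameter fit; % inhibition at 10 μM given if EC50 >10 μM.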
(Time-resolved FRET reads energy transfer from a long-lived donor to a nearby acceptor.)

The subject of experiment [2] is Primary human fibroblasts derived from IPF patients (LL29 cells) treated with TGF-β1. The experiment is described as follows: Inhibition of the fibrotic process: αSMA staining in TGF-β1 treated fibroblasts. The note with it: Fibroblast, 96 h, LL29 fibroblasts treated with TGF-β1, 4 days; for inhibition at 10 µM: read-out: percent inhibition in brackets beside EC50 >10 μM. It counts as cell-based. In short, it runs like this:
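LL29 IPF-patient lung fibroblasts in 1% FBS F12 were given compounds (11-point, 10 μM to […], 0.1% DMSO) plus TGF-β1 20 ng/mL for 4 days at 37 °C. αSMA-positive fraction of live (SYTOX-negative) cells was imaged and normalized to TGF-β1/DMSO wells. EC50 by non-linear regression, or % inhibition at 10 μM if >10 μM.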

Bounds are passed on as bounds.

Regarding `O=C(Nc1cncc(-c2ccc3[nH]nc(-c4nc5c(-c6ccc(Cl)s6)nccc5[nH]4)c3n2)c1)C1CCC1` [Compound 1056, N-(5-(3-(4-(5-Chlorothiophen-2-yl)-1H-imidazo[4,5-c]pyridin-2-yl)-1H-pyrazolo[4,3-b]pyridin-5-yl)pyridin-3-yl)cyclobutanecarboxamide], in experiment [1], the half-maximal effective concentration (EC50) was > 10 µM and the inhibition at 10 µM was determined as 0%. This compound also came in with a half-maximal effective concentration (EC50) in experiment [2] of 2.24 µM.
The matching figures for `NC1CN(c2cncc(-c3ccc4[nH]nc(-c5nc6c(-c7ccc(Cl)s7)nccc6[nH]5)c4n3)n2)C1` [Compound 1068, 1-(6-(3-(4-(5-Chlorothiophen-2-yl)-1H-imidazo[4,5-c]pyridin-2-yl)-1H-pyrazolo[4,3-b]pyridin-5-yl)pyrazin-2-yl)azetidin-3-amine]: > 10 µM, 19.2% and 3.99 µM.
On to `c1cc2[nH]c(-c3n[nH]c4ccc(C5CCNCC5)nc34)nc2c(-c2ccc3c(c2)OCO3)n1` [Compound 1108, 3-(4-(Benzo[d][1,3]dioxol-5-yl)-1H-imidazo[4,5-c]pyridin-2-yl)-5-(piperidin-4-yl)-1H-pyrazolo[4,3-b]pyridine], for which, in experiment [1], the EC50 is > 10 µM and the inhibition at 10 µM was found to be 22.8%. In addition, in experiment [2], the EC50 is > 10 µM and the inhibition at 10 µM worked out at 43.7%.
For the compound `Cc1ncc(-c2ccc3[nH]nc(-c4nc5c(-c6cccc(F)c6)nccc5[nH]4)c3n2)s1` [Compound 1126, 5-(3-(4-(3-Fluorophenyl)-1H-imidazo[4,5-c]pyridin-2-yl)-1H-pyrazolo[4,3-b]pyridin-5-yl)-2-methylthiazole], in experiment [1], the EC50 was > 10 µM and the inhibition at 10 µM was 0%. Further, the EC50 in experiment [2] came to 0.203 µM.
As for `Cn1cc(-c2ccc3[nH]nc(-c4nc5c(-c6ccc(F)cc6)nccc5[nH]4)c3n2)c(CO)n1` [Compound 1128, (4-(3-(4-(4-Fluorophenyl)-1H-imidazo[4,5-c]pyridin-2-yl)-1H-pyrazolo[4,3-b]pyridin-5-yl)-1-methyl-1H-pyrazol-3-yl)methanol], in experiment [1], the EC50 was > 10 µM and the inhibition at 10 µM was 0%. This compound had an EC50 in experiment [2] of 2.67 µM.
The matching figures for `Cn1cc(-c2ccc3[nH]nc(-c4nc5c(N6CCCCC6)nccc5[nH]4)c3n2)c(CO)n1` [Compound 1133, (1-Methyl-4-(3-(4-(piperidin-1-yl)-1H-imidazo[4,5-c]pyridin-2-yl)-1H-pyrazolo [4,3-b]pyridin-5-yl)-1H-pyrazol-3-yl)methanol]: > 10 µM, 0% and 1.06 µM.
Turning to `Cn1cc(-c2ccc3[nH]nc(-c4nc5c(-c6ccc7c(c6)OCO7)nccc5[nH]4)c3n2)c(CO)n1` [Compound 1151, (4-(3-(4-(Benzo[d][1,3]dioxol-5-yl)-1H-imidazo[4,5-c]pyridin-2-yl)-1H-pyrazolo [4,3-b]pyridin-5-yl)-1-methyl-1H-pyrazol-3-yl)methanol], in experiment [1], the EC50 was > 10 µM and the inhibition at 10 µM was 0%. Moreover, in experiment [2], the concentration for a half-maximal effect (EC50) was > 10 µM and the inhibition at 10 µM came to 0%.
